Test system: patients with fasting triglyceride levels ≥500 mg/dL
Experiment: Lipoprotein particle concentration by NMR spectroscopy in the clinical study
Format: in vivo, human
Conditions: for IDL particle concentration, median change from baseline / Large HDL particle concentration, median change from baseline / Large LDL particle concentration, median change from baseline / Large VLDL particle concentration, median change from baseline / Medium HDL particle concentration, median change from baseline / Medium VLDL particle concentration, median change from baseline / Small HDL particle concentration, median change from baseline / Small LDL particle concentration, median change from baseline / Small VLDL particle concentration, median change from baseline / Total HDL particle concentration, median change from baseline / Total LDL particle concentration, median change from baseline / Total VLDL particle concentration, median change from baseline: baseline to study end; for IDL particle concentration, end-of-treatment value (median) / Large HDL particle concentration, end-of-treatment value (median) / Large LDL particle concentration, end-of-treatment value (median) / Large VLDL particle concentration, end-of-treatment value (median) / Medium HDL particle concentration, end-of-treatment value (median) / Medium VLDL particle concentration, end-of-treatment value (median) / Small HDL particle concentration, end-of-treatment value (median) / Small LDL particle concentration, end-of-treatment value (median) / Small VLDL particle concentration, end-of-treatment value (median) / Total HDL particle concentration, end-of-treatment value (median) / Total LDL particle concentration, end-of-treatment value (median) / Total VLDL particle concentration, end-of-treatment value (median): study end
Procedure: Lipoprotein particle concentrations and sizes were measured with nuclear magnetic resonance spectroscopy in the above described clinical trial. Lipoprotein particle size and concentration parameters were obtained from fasting blood samples. Lipoprotein particle size and concentrations are measured by nuclear magnetic resonance (NMR) spectroscopy at LipoScience, Inc. (Raleigh, N.C.) using the LipoProfile-3 algorithm. VLDL, LDL, and HDL subclasses of different size were quantified from the amplitudes of their spectroscopically-distinct lipid methyl group NMR signals.
Concentrations of the following subclasses of lipoproteins were analyzed in this study: small LDL (18.0-20.5 nm), large LDL (20.5-23.0 nm), intermediate-density lipoprotein (IDL; 23.0-29.0 nm), large high-density lipoprotein (HDL; 9.4-14.0 nm), medium HDL (8.2-9.4 nm), small HDL (7.3-8.2 nm), large very-low-density lipoprotein (VLDL; >60 nm), medium VLDL (42-60 nm), and small VLDL (29-42 nm).
Subjects with missing baseline or Week 12 measurements, due to either missing laboratory samples or un-reportable values, were excluded from this analysis. The median difference of each lipoprotein particle variable (percent change from baseline) between each AMR101 treatment group and the placebo group was evaluated with a nonparametric test using the Hodges-Lehmann medians of the differences between treatment groups and the Wilcoxon rank-sum test (significance level 0.05). All statistical analyses were carried out using SAS 9.2 software.

[1] = 4 g/day vs placebo, Hodges-Lehmann median
[2] = 4 g/day vs placebo, stated as reduction

## CC/C=C\C/C=C\C/C=C\C/C=C\C/C=C\CCCC(=O)OCC [AMR101, ethyl eicosapentaenoate]
2 g/day, n = 63
  IDL particle concentration, median change from baseline: 0.8%
  Large HDL particle concentration, median change from baseline: −1.6%
  Large LDL particle concentration, median change from baseline: −20.9%
  Large VLDL particle concentration, median change from baseline: −2.5%
  Medium HDL particle concentration, median change from baseline: 3.9%
  Medium VLDL particle concentration, median change from baseline: 18.8%
  Small HDL particle concentration, median change from baseline: −3.2%
  Small LDL particle concentration, median change from baseline: 9.5%
  Small VLDL particle concentration, median change from baseline: 11.5%
  Total HDL particle concentration, median change from baseline: −3.3%
  Total LDL particle concentration, median change from baseline: 12.6%
  Total VLDL particle concentration, median change from baseline: 13.1%
  IDL particle concentration, end-of-treatment value (median): 144.0 nmol/L
  Large HDL particle concentration, end-of-treatment value (median): 2.3 µmol/L
  Large LDL particle concentration, end-of-treatment value (median): 51.0 nmol/L
  Large VLDL particle concentration, end-of-treatment value (median): 29.9 nmol/L
  Medium HDL particle concentration, end-of-treatment value (median): 8.7 µmol/L
  Medium VLDL particle concentration, end-of-treatment value (median): 93.8 nmol/L
  Small HDL particle concentration, end-of-treatment value (median): 21.5 µmol/L
  Small LDL particle concentration, end-of-treatment value (median): 1100 nmol/L
  Small VLDL particle concentration, end-of-treatment value (median): 53.9 nmol/L
  Total HDL particle concentration, end-of-treatment value (median): 33.4 µmol/L
  Total LDL particle concentration, end-of-treatment value (median): 1464 nmol/L
  Total VLDL particle concentration, end-of-treatment value (median): 190.1 nmol/L
[1]
  Large VLDL particle concentration, placebo-adjusted median percent change from baseline: −27.9%
  Small LDL particle concentration, placebo-adjusted median percent change from baseline: −25.6%
  Small VLDL particle concentration, placebo-adjusted median percent change from baseline: 5.3%
  Total HDL particle concentration, placebo-adjusted median percent change from baseline: −7.4%
  Total LDL particle concentration, placebo-adjusted median percent change from baseline: −16.3%
[2]
  Reduction of small LDL particle concentration: 25.6%
  Reduction of total LDL particle concentration (IDL, small LDL and large LDL particles): 16.3%
4 g/day, n = 61
  IDL particle concentration, median change from baseline: 19.2%
  Large HDL particle concentration, median change from baseline: 8.3%
  Large LDL particle concentration, median change from baseline: −32.3%
  Large VLDL particle concentration, median change from baseline: −24.5%
  Medium HDL particle concentration, median change from baseline: −18.3%
  Medium VLDL particle concentration, median change from baseline: 36.4%
  Small HDL particle concentration, median change from baseline: −5.1%
  Small LDL particle concentration, median change from baseline: −9.7%
  Small VLDL particle concentration, median change from baseline: 4.3%
  Total HDL particle concentration, median change from baseline: −7.1%
  Total LDL particle concentration, median change from baseline: −0.1%
  Total VLDL particle concentration, median change from baseline: 15.2%
  IDL particle concentration, end-of-treatment value (median): 185.0 nmol/L
  Large HDL particle concentration, end-of-treatment value (median): 2.3 µmol/L
  Large LDL particle concentration, end-of-treatment value (median): 64.0 nmol/L
  Large VLDL particle concentration, end-of-treatment value (median): 21.2 nmol/L
  Medium HDL particle concentration, end-of-treatment value (median): 8.4 µmol/L
  Medium VLDL particle concentration, end-of-treatment value (median): 106.8 nmol/L
  Small HDL particle concentration, end-of-treatment value (median): 21.6 µmol/L
  Small LDL particle concentration, end-of-treatment value (median): 998.0 nmol/L
  Small VLDL particle concentration, end-of-treatment value (median): 52.5 nmol/L
  Total HDL particle concentration, end-of-treatment value (median): 30.8 µmol/L
  Total LDL particle concentration, end-of-treatment value (median): 1419 nmol/L
  Total VLDL particle concentration, end-of-treatment value (median): 200.3 nmol/L
